Measured values: ChEMBL document CHEMBL4765365, “Design, synthesis and antitumour evaluation of pyrrolo[1,2-f]-phenanthridine and dibenzo[f,h]pyrrolo[1,2-b]isoquinoline derivatives” (Eur J Med Chem, 2020)
Active and inactive are the calls of the source. No cut-off for these calls is given here.

Key:
HCT-116 [1] = test: Induction of cell cycle arrest in human HCT-116 cells assessed as G1 phase at 0.75 uM measured at 0 hrs by PI staining based flow cytometry analysis (reference value: 52 +/- 5.1 %); type: functional
HCT-116 [2] = test: Induction of cell cycle arrest in human HCT-116 cells assessed as G2/M phase at 1.5 uM measured at 0 hrs by PI staining based flow cytometry analysis (reference value: 28.9 +/- 1.4 %); type: functional
NCI-H460 [3] = test: Induction of cell cycle arrest in human NCI-H460 cells assessed as G0 phase at 3 uM incubated for 12 hrs by PI staining based flow cytometry analysis (reference value: 2.9 +/- 2.4 %); type: functional
NCI-H460 [4] = test: Induction of cell cycle arrest in human NCI-H460 cells assessed as G0 phase at 1.5 uM incubated for 36 hrs by PI staining based flow cytometry analysis (reference value: 2.8 +/- 0.7 %); type: functional
NCI-H460 [5] = test: Induction of cell cycle arrest in human NCI-H460 cells assessed as G0 phase at 3 uM measured at 0 hrs by PI staining based flow cytometry analysis (reference value: 1.3 +/- 0.9 %); type: functional
HCT-116 [6] = test: Induction of cell cycle arrest in human HCT-116 cells assessed as G0 phase at 0.75 uM incubated for 36 hrs by PI staining based flow cytometry analysis (reference value: 2.5 +/- 0.8 %); type: functional
NCI-H460 [7] = test: Induction of cell cycle arrest in human NCI-H460 cells assessed as G1 phase at 3 uM incubated for 24 hrs by PI staining based flow cytometry analysis (reference value: 56.8 +/- 7.6 %); type: functional
HCT-116 [8] = test: Induction of cell cycle arrest in human HCT-116 cells assessed as G0 phase at 0.375 uM incubated for 24 hrs by PI staining based flow cytometry analysis (reference value: 12.5 +/- 5.4 %); type: functional
HCT-116 [9] = test: Induction of cell cycle arrest in human HCT-116 cells assessed as G0 phase at 0.375 uM incubated for 36 hrs by PI staining based flow cytometry analysis (reference value: 2.5 +/- 0.8 %); type: functional
HCT-116 [10] = test: Induction of cell cycle arrest in human HCT-116 cells assessed as G0 phase at 0.75 uM incubated for 24 hrs by PI staining based flow cytometry analysis (reference value: 12.5 +/- 5.4 %); type: functional
HCT-116 [11] = test: Induction of cell cycle arrest in human HCT-116 cells assessed as G1 phase at 0.375 uM incubated for 36 hrs by PI staining based flow cytometry analysis (reference value: 57.4 +/- 1.3 %); type: functional
NCI-H460 [12] = test: Induction of cell cycle arrest in human NCI-H460 cells assessed as G1 phase at 3 uM incubated for 36 hrs by PI staining based flow cytometry analysis (reference value: 57.9 +/- 3.6 %); type: functional
NCI-H460 [13] = test: Induction of cell cycle arrest in human NCI-H460 cells assessed as G0 phase at 0.75 uM incubated for 36 hrs by PI staining based flow cytometry analysis (reference value: 2.8 +/- 0.7 %); type: functional
HCT-116 [14] = test: Induction of cell cycle arrest in human HCT-116 cells assessed as S phase at 0.375 uM incubated for 12 hrs by PI staining based flow cytometry analysis (reference value: 15.5 +/- 0.2 %); type: functional
dsDNA = test: Induction of pBR322 DNA interstand crosslink at 1 to 20 uM incubated for 2 hrs by agarose gel electrophoresis assay; details: dose 1-20 µM
NCI-H460 [15] = test: Induction of cell cycle arrest in human NCI-H460 cells assessed as S phase at 3 uM measured at 0 hrs by PI staining based flow cytometry analysis (reference value: 12.2 +/- 2.8 %); type: functional
NCI-H460 [16] = test: Induction of cell cycle arrest in human NCI-H460 cells assessed as G1 phase at 1.5 uM incubated for 12 hrs by PI staining based flow cytometry analysis (reference value: 66 +/- 10 %); type: functional
HCT-116 [17] = test: Induction of cell cycle arrest in human HCT-116 cells assessed as G2/M phase at 0.375 uM measured at 0 hrs by PI staining based flow cytometry analysis (reference value: 28.9 +/- 1.4 %); type: functional
NCI-H460 [18] = test: Induction of cell cycle arrest in human NCI-H460 cells assessed as G2/M phase at 0.75 uM measured at 0 hrs by PI staining based flow cytometry analysis (reference value: 25.2 +/- 4 %); type: functional
HCT-116 [19] = test: Induction of cell cycle arrest in human HCT-116 cells assessed as G1 phase at 1.5 uM incubated for 24 hrs by PI staining based flow cytometry analysis (reference value: 55 +/- 9.8 %); type: functional
NCI-H460 [20] = test: Induction of cell cycle arrest in human NCI-H460 cells assessed as S phase at 3 uM incubated for 36 hrs by PI staining based flow cytometry analysis (reference value: 7.6 +/- 3.9 %); type: functional
NCI-H460 [21] = test: Induction of cell cycle arrest in human NCI-H460 cells assessed as G1 phase at 1.5 uM measured at 0 hrs by PI staining based flow cytometry analysis (reference value: 53.4 +/- 4.8 %); type: functional
NCI-H460 [22] = test: Induction of cell cycle arrest in human NCI-H460 cells assessed as S phase at 0.75 uM incubated for 36 hrs by PI staining based flow cytometry analysis (reference value: 7.6 +/- 3.9 %); type: functional
HCT-116 [23] = test: Induction of cell cycle arrest in human HCT-116 cells assessed as S phase at 0.75 uM incubated for 36 hrs by PI staining based flow cytometry analysis (reference value: 7.9 +/- 3.7 %); type: functional
NCI-H460 [24] = test: Induction of apoptosis in human NCI-H460 cells assessed as viable cells at 6 uM incubated for 48 hrs by annexin V-FITC and PI staining based flow cytometry analysis (reference value: 90.1 %); type: functional; details: read-out: Activity
HCT-116 [25] = test: Induction of cell cycle arrest in human HCT-116 cells assessed as G1 phase at 0.375 uM measured at 0 hrs by PI staining based flow cytometry analysis (reference value: 52 +/- 5.1 %); type: functional
NCI-H460 [26] = test: Induction of cell cycle arrest in human NCI-H460 cells assessed as G1 phase at 3 uM incubated for 12 hrs by PI staining based flow cytometry analysis (reference value: 66 +/- 10 %); type: functional
HCT-116 [27] = test: Induction of cell cycle arrest in human HCT-116 cells assessed as G1 phase at 0.375 uM incubated for 24 hrs by PI staining based flow cytometry analysis (reference value: 55 +/- 9.8 %); type: functional
NCI-H460 [28] = test: Induction of cell cycle arrest in human NCI-H460 cells assessed as G0 phase at 0.75 uM incubated for 12 hrs by PI staining based flow cytometry analysis (reference value: 2.9 +/- 2.4 %); type: functional
HCT-116 [29] = test: Cytotoxicity against human HCT-116 cells assessed as reduction in cell viability incubated for 72 hrs by XTT assay; type: functional, cell-based; details: HCT-116, 72 h
HCT-116 [30] = test: Induction of cell cycle arrest in human HCT-116 cells assessed as G1 phase at 1.5 uM incubated for 12 hrs by PI staining based flow cytometry analysis (reference value: 53.6 +/- 4.5 %); type: functional
HCT-116 [31] = test: Induction of cell cycle arrest in human HCT-116 cells assessed as G2/M phase at 1.5 uM incubated for 24 hrs by PI staining based flow cytometry analysis (reference value: 9.3 +/- 0.8 %); type: functional

OCc1cn2c3ccccc3c3ccccc3c2c1CO gave an Activity (HCT-116 [1]) of 52%, an Activity (HCT-116 [2]) of 28.5% and an Activity (NCI-H460 [3]) of 2.5%. It also gave an Activity (NCI-H460 [4]) of 3.3%, an Activity (NCI-H460 [5]) of 1.3% and an Activity (HCT-116 [6]) of 6.9%. It also gave an Activity (NCI-H460 [7]) of 49.3%, an Activity (HCT-116 [8]) of 13.8% and an Activity (HCT-116 [9]) of 2.8%. For the same molecule, the Activity (HCT-116 [10]) was 2.7%, the Activity (HCT-116 [11]) was 59.3% and the Activity (NCI-H460 [12]) was 51.8%. The Activity (NCI-H460 [13]) was 1.9%, the Activity (HCT-116 [14]) was 16.9% and the Activity (dsDNA) was “Active”. The Activity (NCI-H460 [15]) was 12.2%, the Activity (NCI-H460 [16]) was 50.7% and the Activity (HCT-116 [17]) was 28.8%. It also gave an Activity (NCI-H460 [18]) of 24.2%, an Activity (HCT-116 [19]) of 54.5% and an Activity (NCI-H460 [20]) of 9.6%. For the same molecule, the Activity (NCI-H460 [21]) was 55.5%, the Activity (NCI-H460 [22]) was 6.3% and the Activity (HCT-116 [23]) was 5.1%. It also gave a viability at 6 µM (NCI-H460 [24]) of 13.4%, an Activity (HCT-116 [25]) of 52.9% and an Activity (NCI-H460 [26]) of 53.3%. It also gave an Activity (HCT-116 [27]) of 46.7%, an Activity (NCI-H460 [28]) of 3.7% and an IC50 (HCT-116 [29]) of 1120 nM. The Activity (HCT-116 [30]) was 48.8% and the Activity (HCT-116 [31]) was 30.3%.
